# Measurements published in ChEMBL document CHEMBL3286278, “Antifungal and cytotoxic 2-acylcyclohexane-1,3-diones from Peperomia alata and P. trineura” (J Nat Prod, 2014).
# What was measured:
# [1] = system: Cladosporium sphaerospermum; test: Antifungal activity against Cladosporium sphaerospermum after 48 hrs; assay type: functional
# [2] = system: Cladosporium cladosporioides; test: Antifungal activity against Cladosporium cladosporioides after 48 hrs; assay type: functional
# [3] = Cytotoxicity against human NALM6 cells after 48 hrs by MTT assay; assay type: functional, cell-based; details: NALM-6, 48 h
# [4] = system: K562; test: Cytotoxicity against human K562 cells after 48 hrs by MTT assay; assay type: functional, cell-based; details: K562, 48 h
Compound,Activity [1],Activity [2],IC50 [3],IC50 [4]
NYSTATIN,1 µg,1 µg,,
O=C(CCCCCCCCCCCCCCc1ccc2c(c1)OCO2)C1=C(O)CCCC1=O,5 µg,5 µg,,
CCCCC/C=C\CCCCCCCCC(=O)C1=C(O)CC[C@@H](O)C1=O,10 µg,1 µg,14.3 µM,26 µM
Clc1ccc(COC(Cn2ccnc2)c2ccc(Cl)cc2Cl)c(Cl)c1 (stereo not given) [MICONAZOLE],1 µg,1 µg,,
CCCCC/C=C\CCCCCCCCC(=O)C1=C(O)CCCC1=O,25 µg,10 µg,,
O=C1CCCC(O)=C1C(=O)CCc1ccc2c(c1)OCO2,0.5 µg,0.5 µg,,
O=C(CCCCCCCCCCCCCCCCc1ccc2c(c1)OCO2)C1=C(O)CCCC1=O,5 µg,5 µg,,
O=C(CC/C=C/c1ccccc1)C1=C(O)CCCC1=O,0.25 µg,0.25 µg,,
O=C(CCCCCCCC/C=C/c1ccccc1)C1=C(O)CCCC1=O,25 µg,5 µg,,
